The test system of one assay is A549 (lung carcinoma). As to the kind of experiment: In vitro antiproliferation assay, A549 cells (TABLE 1 6 point assay; TABLE 2). The assay is classed as cell-based. Here is the method: (§1) Certain compounds were tested against other cell types for their ability to inhibit proliferation in standard antiproliferation assays.
Assay [1] deals with H1299 (non-small cell lung carcinoma). As to the kind of experiment: In vitro antiproliferation assay, H1299 cells (TABLE 1 6 point assay; TABLE 2). The assay is classed as cell-based. To be noted: Homo sapiens. Here is the method:
as §1

[2] abbreviates: Homo sapiens, A549, A549 cells, 6 point assay, read-out: A549, 6pt (IC50, inhibition of proliferation).
The mark [3] stands for this setting: NCI-H1299, H1299 cells, 6 point assay, read-out: H1299, 6pt (IC50, inhibition of proliferation).
Where [4] appears, read: Homo sapiens, A549, 6 point assay, A549 cells, read-out: IC50, A549 cells.
Setting [5] is: NCI-H1299, 6 point assay, H1299 cells, read-out: IC50, H1299 cells.

Where a name gives a salt, the structure may show the parent alone. Read-outs that look alike come from different tables or passages of the source.

As to `CN(C)CCN1CCc2cc(Nc3ncc(F)c(NC4C5C=CC(C5)C4C(N)=O)n3)ccc21` (racemic) [compound 171, Racemic-(2-exo, 3-exo)-N4-(3-aminocarbonylbicyclo[2.2.1]hept-5-en-2-yl)-5-fluoro-N2-[N-(2-dimethylaminoethyl)-2,3-dihydro-indol-5-yl]-2,4-pyrimidinediamine Bis Hydrogen Chloride Salt], the IC50 (in the assay on A549 (lung carcinoma) (setting [2]); in assay [1] (setting [3])) was 100 to 1000 nM each time.

As to `CN1CCc2cc(Nc3ncc(F)c(NC4C5C=CC(C5)C4C(N)=O)n3)ccc21` (racemic) [compound 174, Racemic-(2-exo,3-exo)-N4-[3-aminocarbonylbicyclo[2.2.1]hept-5-en-2-yl)-5-fluoro-N2-(1-methy-2,3-dihydrolindol-5-yl)-2,4-pyrimidinediamine], the IC50 (in the assay on A549 (lung carcinoma) (setting [2]); in assay [1] (setting [3])) was 100 to 1000 nM throughout.

Consider `CN(C)CCn1ccc2cc(Nc3ncc(F)c(NC4C5C=CC(C5)C4C(=O)NC4CC4)n3)ccc21` (racemic) [compound 175, Racemic-(2-exo,3-exo)-N4-[3-cyclopropylaminocarbonylbicyclo[2.2.1]hept-5-en-2-yl)-N2-[1-(2-dimethylaminoethyl)indol-5-yl]-5-fluoro-2,4-pyrimidinediamine], for which the IC50 (in the assay on A549 (lung carcinoma) (setting [2]); in assay [1] (setting [3])) was ≤ 100 nM each time.

On to `CN(C)CCN1CCc2cc(Nc3ncc(F)c(NC4C5C=CC(C5)C4C(=O)NC4CCC4)n3)ccc21` (racemic) [compound 176, Racemic-(2-exo,3-exo)-N4-[3-cyclobutylaminocarbonylbicyclo[2.2.1]hept-5-en-2-yl)-N2-[1-(2-dimethylaminoethyl)-2,3-dihydroindol-5-yl]-5-fluoro-2,4-pyrimidinediamine], for which the IC50 (in the assay on A549 (lung carcinoma) (setting [2]); in assay [1] (setting [3])) was ≤ 100 nM in each case.

Turning to `CNC(=O)C1C2C=CC(C2)C1Nc1nc(Nc2ccc3c(c2)CCN3CCN(C)C)ncc1F` (racemic) [compound 177, Racemic-(2-exo,3-exo)-N2-[1-(2-dimethylaminoethyl)-2,3-dihydroindol-5-yl]-5-fluoro-N4-[3-N-methylaminocarbonylbicyclo[2.2.1]hept-5-ene-2-yl]-2,4-pyrimidinediamine], the IC50 in the assay on A549 (lung carcinoma) (setting [2]) is ≤ 100 nM; in assay [1] (setting [3]) it was 100 to 1000 nM.

Turning to `CN(C)CCN1CCc2cc(Nc3ncc(F)c(NC4C5CCC(C5)C4C(=O)NC4CC4)n3)ccc21` (racemic) [compound 178, Racemic-(2-exo,3-exo)-N4-[3-cyclopropylaminocarbonylbicyclo[2.2.1]hept-2-yl)-N2-[1-(2-dimethylaminoethyl)-2,3-dihydro-indol-5-yl]-5-fluoro-2,4-pyrimidinediamine], the IC50 (in the assay on A549 (lung carcinoma) (setting [2]); in assay [1] (setting [3])) was ≤ 100 nM in each case.

In the case of `CN(C)CCn1ccc2ccc(Nc3ncc(F)c(NC4C5CCC(C5)C4C(=O)NC4CC4)n3)cc21` (racemic) [compound 179, Racemic-(2-exo,3-exo)-N4-[3-cyclopropylaminocarbonylbicyclo[2.2.1]hept-2-yl)-N2-[1-(2-dimethylaminoethyl)indol-6-yl]-5-fluoro-2,4-pyrimidinediamine], the IC50 (with A549 (lung carcinoma) (setting [2]); in assay [1] (setting [3])) was 100 to 1000 nM each time.

`CS(=O)(=O)N1CCc2cc(Nc3ncc(F)c(NC4C5CCC(C5)C4C(=O)NC4CC4)n3)ccc21` (racemic) [compound 180, Racemic-(2-exo,3-exo)-N4-[3-cyclopropylaminocarbonylbicyclo[2.2.1]hept-2-yl)-5-fluoro-N2-[1-methylsulfonyl-2,3-dihydro-indol-5-yl]-2,4-pyrimidinediamine]: the IC50 (in the assay with A549 (lung carcinoma) (setting [2]); in assay [1] (setting [3])) was ≤ 100 nM in each case.

On to `CNC(=O)C1C2C=CC(C2)C1Nc1nc(Nc2ccc3c(c2)CCN3S(C)(=O)=O)ncc1F` (racemic) [compound 181, Racemic-(2-exo,3-exo)-5-fluoro-N4-[3-methylaminocarbonylbicyclo[2.2.1]hept-5-en-2-yl)-N2-[1-methylsulfonyl-2,3-dihydroindol-5-yl]-2,4-pyrimidinediamine], for which the IC50 (in the assay with A549 (lung carcinoma) (setting [2]); in assay [1] (setting [3])) was ≤ 100 nM throughout.

For `CCNC(=O)C1C2C=CC(C2)C1Nc1nc(Nc2ccc3c(c2)CCN3S(C)(=O)=O)ncc1F` (racemic) [compound 182, Racemic-(2-exo,3-exo)-N4-[3-ethylaminocarbonylbicyclo[2.2.1]hept-5-en-2-yl)-5-fluoro-N2-[1-methylsulfonyl-2,3-dihydro-indol-5-yl]-2,4-pyrimidinediamine], the IC50 (with A549 (lung carcinoma) (setting [2]); in assay [1] (setting [3])) was ≤ 100 nM in each case.

For `CNC(=O)C1C2C=CC(C2)C1Nc1nc(Nc2ccc3c(ccn3CCN(C)C)c2)ncc1F` (racemic) [compound 183, Racemic-(2-exo,3-exo)-N2-[1-(2-dimethylaminoethyl)indol-5-yl]-5-fluoro-N4-[3-methylaminocarbonylbicyclo[2.2.1]hept-5-en-2-yl)-2,4-pyrimidinediamine], the IC50 (with A549 (lung carcinoma) (setting [2]); in assay [1] (setting [3])) was ≤ 100 nM in each case.

Take `CCNC(=O)C1C2C=CC(C2)C1Nc1nc(Nc2ccc3c(c2)OCCN3CCN(C)C)ncc1F` (racemic) [compound 184, Racemic-(2-exo,3-exo)-N4-[3-N-ethylminocarbonylbicyclo[2.2.1]hept-5-en-2-yl)-5-fluoro-N2-{1-[2-(dimethylamino)ethyl]-3,4-dihydro-4H-benz[1,4]oxazin-6-yl}-2,4-pyrimidinediamine]: the IC50 (in the assay with A549 (lung carcinoma) (setting [2]); in assay [1] (setting [3])) was ≤ 100 nM in each case.

On to `COCc1cc(Nc2ncc(F)c(N[C@H]3CCC[C@H]3C(N)=O)n2)ccc1N1CCN(C)CC1` (racemic) [compound 216, Racemic-cis-N4-(2-aminocarbonylcyclopent-1-yl)-5-fluoro-N2-[4-(4-methylpiperazin-1-yl)-3-methoxymethylenephenyl]-2,4-pyrimidinediamine], for which the IC50 (with A549 (lung carcinoma) (setting [4]); in assay [1] (setting [5])) was 100 to 1000 nM in each case.

`CN1CCN(c2ccc(Nc3ncc(F)c(N[C@H]4CCC[C@H]4C(N)=O)n3)cc2CO)CC1` (racemic) [compound 217, Racemic-cis-N4-(2-aminocarbonylcyclopent-1-yl)-5-fluoro-N2-[3-hydroxymethylene-4-(4-methylpiperazin-1-yl)phenyl]-2,4-pyrimidinediamine]: the IC50 is 100 to 1000 nM in the assay on A549 (lung carcinoma) (setting [4]) and 1000 to 10000 nM in assay [1] (setting [5]).

As to `COC(=O)[C@@H]1CCC[C@@H]1Nc1nc(Nc2ccc(N3CCN(C)CC3)c(C)c2)ncc1F` (racemic) [compound 218, Racemic-cis-5-fluoro-N2-[3-methyl-4-(4-methylpiperazin-1-yl)phenyl]-N4-(2-methoxycarbonylcyclopent-1-yl)-2,4-pyrimidinediamine], the IC50 (with A549 (lung carcinoma) (setting [4]); in assay [1] (setting [5])) was 1000 to 10000 nM in each case.

As for `Cc1cc(Nc2ncc(F)c(N[C@H]3CCCC[C@H]3C(N)=O)n2)ccc1N1CCN(C)CC1` (racemic) [compound 223, Racemic-cis-N4-(2-aminocarbonylcyclohex-1-yl)-5-fluoro-N2-[3-methyl-4-(4-methylpiperazin-1-yl)phenyl]-2,4-pyrimidinediamine], the IC50 lay within 100 to 1000 nM in the assay with A549 (lung carcinoma) (6 point assay, A549 cells, read-out: IC50, A549 cells) and 1000 to 10000 nM in assay [1] (setting [5]).

Take `Cc1cc(Nc2ncc(F)c(N[C@H]3C=CCC[C@H]3C(N)=O)n2)ccc1N1CCN(C)CC1` (racemic) [compound 227, Racemic-cis-N4-(2-aminocarbonylcyclohex-5-ene-1-yl)-5-fluoro-N2-[3-methyl-4-(4-methylpiperazin-1-yl)phenyl]-2,4-pyrimidinediamine]: the IC50 (in the assay on A549 (lung carcinoma) (setting [4]); in assay [1] (setting [5])) was 1000 to 10000 nM throughout.

In the case of `Cc1cc(Nc2ncc(F)c(N[C@@H]3CC=CC[C@H]3C(N)=O)n2)ccc1N1CCN(C)CC1` (racemic) [compound 229, Racemic-N4-(2-aminocarbonylcyclohex-4-ene-1-yl)-5-fluoro-N2-[3-methyl-4-(4-methylpiperazin-1-yl)phenyl]-2,4-pyrimidinediamine], the IC50 (in the assay with A549 (lung carcinoma) (setting [4]); in assay [1] (setting [5])) was > 10000 nM in each case.

Consider `CN1CCN(c2ccc(Nc3ncc(F)c(NC4C5C=CC(C5)C4C(N)=O)n3)cc2)CC1` (racemic) [compound 230, Racemic-(2-exo,3-exo)-N4-(3-aminocarbonylbicyclo[2.2.1]hept-5-en-2-yl)-5-fluoro-N2-[4-(4-methylpiperazin-1-yl)phenyl]-2,4-pyrimidinediamine], for which the IC50 (in the assay on A549 (lung carcinoma) (setting [4]); in assay [1] (setting [5])) was ≤ 100 nM throughout.

Turning to `CN1CCN(c2cccc(Nc3ncc(F)c(NC4C5C=CC(C5)C4C(N)=O)n3)c2)CC1` (racemic) [compound 231, Racemic-(2-exo,3-exo)-N4-(3-aminocarbonylbicyclo[2.2.1]hept-5-en-2-yl)-5-fluoro-N2-[3-(4-methylpiperazin-1-yl)]phenyl-2,4-pyrimidinediamine], the IC50 (with A549 (lung carcinoma) (setting [4]); in assay [1] (setting [5])) was ≤ 100 nM throughout.

For `Cc1cc(Nc2ncc(F)c(NC3C4C=CC(C4)C3C(N)=O)n2)ccc1N1CCN(C(C)C)CC1` (racemic) [compound 232, Racemic-(2-exo,3-exo)-N4-(3-aminocarbonylbicyclo[2.2.1]hept-5-en-2-yl)-5-fluoro-N2-[4-(4-isopropylpiperazin-1-yl)-3-methylphenyl]-2,4-pyrimidinediamine], the IC50 (in the assay on A549 (lung carcinoma) (setting [4]); in assay [1] (setting [5])) was ≤ 100 nM in each case.

Turning to `CN1CCN(c2ccc(Nc3ncc(F)c(NC4C5C=CC(C5)C4C(N)=O)n3)cc2Cl)CC1` (racemic) [compound 233, Racemic-(2-exo,3-exo)-N4-(3-aminocarbonylbicyclo[2.2.1]hept-5-en-2-yl)-N2-[3-chloro-4-(4-methylpiperazin-1-yl)phenyl]-5-fluoro-2,4-pyrimidinediamine], the IC50 (with A549 (lung carcinoma) (setting [4]); in assay [1] (setting [5])) was ≤ 100 nM each time.

(Values after US7868013B2, “Cycloalkyl substituted pyrimidinediamine compounds and their uses” (Rigel Pharmaceuticals, Inc., priority 2004, dated 2011).)
